Experiments:
[1] = tested on: phosphorylation of AKT and mTOR; experiment: Western blot of PI3K pathway; assay type: cell-based, human; details: 48 h
Method: Western blots were performed as previously described. Cells were seeded into six-well plates and treated with DMSO or a series of concentrations of KTC1101. Cells were lysed, and total proteins were harvested. Equal amounts of protein (20–50 μg) were separated using 8% or 12% SDS-PAGE and transferred to polyvinylidene difluoride membranes (Bio-Rad). After blocking in 5% nonfat dry milk, the membranes were incubated with appropriate primary antibodies overnight at 4 °C, washed, and incubated with respective HRP-conjugated secondary antibodies for 1 h at room temperature. The signals were detected using a ChemiDoc XRS + System (Bio-Rad) after exposure to chemiluminescence reagents (Bio-Rad), and β-actin served as the loading control.

[2] = tested on: B16 tumor-bearing C57BL/6 mice; experiment: Toxicity and safety profiling in vivo (serum biochemistry, routine blood, H&E); set-up: species or system mouse; details: hematological parameters in the blood
Method: The B16 tumor-bearing C57BL/6 mice were divided into 4 groups randomly (n = 3 per group) and treated with vehicle, KTC1101 (100 mg/kg 3on/4off, PO), anti-PD-1 antibody (250 μg per mouse, IP), or a combination of KTC1101 and anti-PD-1 antibody. After 14 days of treatment, all mice were sacrificed. Blood samples were collected for analysis; one portion was centrifuged (3000 rpm, 4 °C) to obtain serum for biochemical parameter analysis, including alanine aminotransferase (ALT), aspartate aminotransferase (AST), creatinine (CREA), and blood urea nitrogen (BUN). The other portion was used for routine blood examination. Major organs including the heart, liver, spleen, lung, and kidney were collected, sectioned, and stained with H&E for histopathological evaluation.

[3] = Pharmacokinetic study of oral administration; assay type: in vivo; details: mouse, blood, BALB/c male mice, 100 mg/kg p.o.
Method: Chromatographic conditions employed a Waters BEH C18 column (2.1 mm × 50.0 mm, 1.7 µm) with a mobile phase comprising acetonitrile with 0.1% formic acid (A) and water with 0.1% formic acid (B), at a flow rate of 0.4 mL/min and a column temperature of 40°C. Gradient elution was used: 0–0.3 min, 20:80 → 20:80 (A:B); 0.3–2.5 min, 20:80 → 60:40 (A:B); 2.5–3.0 min, 60:40 → 100:0 (A:B); 3.0–3.01 min, 100:0 → 20:80 (A:B); 3.01–3.5 min, 20:80 → 20:80 (A:B). Mass spectrometry was performed using electrospray ionization (ESI) in positive ion mode, with a capillary voltage of 1 kV, a desolvation temperature of 450 °C, and a desolvation gas flow of 800 L/h. KTC1101 and internal standard phenacetin parameters were optimized for ionization and collision energies.
KTC1101 was prepared at 1 mg/mL concentration in acetonitrile, and further diluted to create a series of standard solutions. Blood samples were taken from BALB/c male mice (19 ± 2g) at various time points post-oral administration of KTC1101 (100 mg/kg). Samples were processed and analyzed using HPLC coupled with mass spectrometry. Data were calculated using Masslynx 4.1 and DAS 3.0 software.

HSC2 tumors = experiment: HSC2 xenograft in BALB/c nude mice; assay type: in vivo, mouse; details: 100 mg/kg PO
Method: BALB/c nude, NSG, and C57BL/6J mice were obtained from Tianjin Medical University. The housing temperature was controlled, ranging from 20.5–24 °C, and humidity was monitored but not controlled ranging from 30–70%. The 12-h daily light cycle was from 06:00 to 18:00. To generate a murine subcutaneous tumor model, PC3 and HSC2 cells were subcutaneously injected into the right lateral flank of 4- to 5-week-old male BALB/c nude mice. TMD8, CAL33, and S24 cells were subcutaneously injected into the right lateral flank of 4- to 5-week-old male NSG mice. When tumors reached a volume of 300–500 mm^3, they were excised, diced into 2 mm × 2 mm × 2 mm pieces, and implanted into the right flanks of BALB/c nude or NSG mice. Tumors were allowed to grow to a volume of 100 mm^3, and then the animals were randomly divided into several groups. Each group of five mice was treated with either vehicle or KTC1101 (25, 50, or 100 mg/kg, PO). Tumor size was measured every 3 d or 4 d until the endpoint. The tumor volume was calculated using the following formula: length × width × height/2. At the end of the experimental period, mice were euthanized by overdosing on pentobarbital sodium, and the tumors were removed. Tumor tissue was formalin-fixed and paraffin-embedded for histological analysis.

[4] = tested on: PC3, TMD8, HSC2, HSC4, CAL33 cells; experiment: Cell proliferation MTT assay, five tumor cell lines; assay type: cell-based; details: Homo sapiens; cell viability assay; read-out: IC50 range over PC3, TMD8, HSC2, HSC4, CAL33 cells
Method: Cell proliferation was measured by MTT assay as previously described. The cells were seeded in a volume of 200 μL/well in 96-well plates. The next day, cells were treated with DMSO or a series of concentrations of KTC1101. After a 48-h incubation period, 20 μL of MTT (5 mg/mL) was added to each well. After further incubation for 4 h at 37 °C, the absorbance at 490 nm was measured using an iMark microplate reader (BIO-RAD, Hercules, CA, USA).

BALB/c mice = experiment: Acute toxicity study; assay type: in vivo; details: symbols O/X not defined
Method: (§1) All mice care and experimental protocols were approved by the Ethical Committee of Tianjin Medical University (permit number: TMUaMEC 2023036). Preliminary testing was conducted on 6 groups of BALB/c mice (half male, half female, 18–22 g), fasted but not water-deprived for 12 h, and administered different doses of KTC1101 (200 to 6400 mg/kg). […] The LD50 was calculated based on the doses causing 0% and 100% mortality in animals. Subsequent testing was done using doses determined from the preliminary study. Each dose was administered to a single animal, with a 72-h interval between dosages. The administration continued until one of the following criteria was met: (a) three consecutive animals survived; (b) a transition from survival to death occurred in 5 out of 6 consecutive animals; (c) at least four animals were tested after the first transition, with an estimated LD50 range exceeding the critical value (2.5 times). The LD50 and its confidence interval were calculated, and the maximum likelihood method was used to determine the LD50 value using the AOT425StatPgm software.

Acute toxicity study = assay type: in vivo; details: both sexes, mouse, in vivo, oral; BALB/c mice, acute toxicity
Method: as §1

Compound: COc1cc(N)cc2c1nc(C(F)F)n2-c1nc(N2CCCOCC2)nc(N2CCOCC2)n1 [KTC1101, 2-(difluoromethyl)-4-methoxy-1-(4-morpholino-6-(1,4-oxazepan-4-yl)-1,3,5-triazin-2-yl)-1H-benzo[d]imidazol-6-amine]
- phosphorylation of AKT and mTOR [1]: reduced phosphorylation
- GRAN [2]: 0.93±0.67 109L-1
- MCV [2]: 52.90 ± 8.84 fL
- PLT [2]: 745.00±220.75 109L-1
- RBC [2]: 6.03±2.50 1012L-1
- RDW [2]: 17.97±3.41%
- WBC [2]: 3.67±3.06 109L-1
- AUC(0-t) [3]: 9330 ng·h/mL
- Cmax [3]: 1660 ng/mL
- Tmax [3]: 0.67 h
- half-life [3]: 7.19 ± 4.07 h
- CL/F ([3]; read-out: CLz/F (converted)): 179 mL/min/kg
- Vd/F ([3]; read-out: Vz/F): 118 ± 85.5 L/kg
- tumor growth (HSC2 tumors): Tumor growth arrest
- IC50 [4]: 20 to 130 nM
- Score (BALB/c mice; real dose 1750 mg/kg): OOO
- Score (BALB/c mice; real dose 2275 mg/kg): XXX
- LD50 at 7 days (Acute toxicity study): 2140 mg/kg

— PMC10938783, “A novel pan-PI3K inhibitor KTC1101 synergizes with anti-PD-1 therapy by targeting tumor suppression and immune activation” (Molecular Cancer, 2024)
